Earlier results in US7446116B2, “Montelukast amantadine salt” (Synthon BV, priority 2006, dated 2008).
Where a name gives a salt, the structure may show the parent alone.

Key:
human patient = conditions: doses of at least 200 mg per day
rats = conditions: oral administration

Compound | safety for a human patient (human patient) | toxicity, expressed as LD50 value (rats) [mg/kg]
NC12CC3CC(CC(C3)C1)C2 [amantadine hydrochloride] | safe and nontoxic | –
CC(C)(C)N [tert.butyl amine] | – | 44
